This is an account of results in patent US10899737B2, “Piperazine carbamates and methods of making and using same” (Lundbeck La Jolla Research Center, Inc., priority 2016, dated 2021).

For assay [1], the target named is T1, MAGL (Homo sapiens, UniProt Q99685).
T1 construct: Proteomes (human prefrontal cortex or cell membrane fractions); from tissue
T1 sequence (Q99685 1-303): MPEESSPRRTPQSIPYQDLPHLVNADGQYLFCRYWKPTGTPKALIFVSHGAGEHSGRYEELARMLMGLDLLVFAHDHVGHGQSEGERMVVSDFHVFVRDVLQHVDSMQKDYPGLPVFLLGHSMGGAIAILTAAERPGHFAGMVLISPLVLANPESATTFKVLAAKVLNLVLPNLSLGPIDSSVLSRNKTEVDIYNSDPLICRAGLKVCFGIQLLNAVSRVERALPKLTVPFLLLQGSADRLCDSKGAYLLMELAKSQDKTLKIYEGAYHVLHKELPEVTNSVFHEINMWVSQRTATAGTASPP
In words: In vitro competitive activity-based protein profiling (human), MAGL. The format is biochemical. As to conditions: for inhibition at 1 µM: 1 μM inhibitor, human proteome, 30 min preincubation at 37° C, read-out: MAGL % inh. 1 μM (human); for IC50: human PC3. An outline of the steps:
(§1)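 Human prefrontal cortex or cell membrane proteomes (1.0-2.0 mg/mL protein) preincubated 30 min at 37° C with inhibitor, then labeled 30 min RT with FP-Rh or JW912 probe. After SDS-PAGE, activity taken from fluorescent band intensity for each enzyme.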

Assay [2] has as its target T2, ABHD6 (Homo sapiens, UniProt Q9BV23).
T2 construct: Proteomes (human prefrontal cortex or cell membrane fractions); endogenous in cells; human prefrontal cortex
T2 sequence (Q9BV23 1-337): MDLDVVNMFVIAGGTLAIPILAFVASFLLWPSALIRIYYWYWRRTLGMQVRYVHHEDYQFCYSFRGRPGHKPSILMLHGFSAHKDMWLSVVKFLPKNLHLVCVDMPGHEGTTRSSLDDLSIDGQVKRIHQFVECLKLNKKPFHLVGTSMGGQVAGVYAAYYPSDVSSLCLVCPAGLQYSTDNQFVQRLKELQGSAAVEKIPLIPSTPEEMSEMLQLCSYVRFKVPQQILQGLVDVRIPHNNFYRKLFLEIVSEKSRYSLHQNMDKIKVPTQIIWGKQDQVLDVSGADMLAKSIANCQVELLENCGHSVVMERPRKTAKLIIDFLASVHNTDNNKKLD
In words: In vitro competitive activity-based protein profiling (human), ABHD6. It is filed as biochemical. As to conditions: human PC3. The procedure, abridged: as §1

For assay [3], the target named is T3, MAGL (Mus musculus, UniProt O35678).
T3 construct: Proteomes (mouse brain membrane fraction or cell lysates); from tissue; host or cells: mouse brain membrane fraction or cell lysates
T3 sequence (O35678 1-303): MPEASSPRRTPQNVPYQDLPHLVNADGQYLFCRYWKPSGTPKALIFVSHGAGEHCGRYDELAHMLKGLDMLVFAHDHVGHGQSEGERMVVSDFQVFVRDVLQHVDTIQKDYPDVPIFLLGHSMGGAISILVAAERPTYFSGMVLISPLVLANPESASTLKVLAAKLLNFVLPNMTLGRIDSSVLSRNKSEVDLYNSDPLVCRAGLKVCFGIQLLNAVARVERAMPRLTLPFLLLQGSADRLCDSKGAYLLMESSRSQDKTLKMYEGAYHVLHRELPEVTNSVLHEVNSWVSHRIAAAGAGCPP
In words: In vitro competitive activity-based protein profiling (mouse), MAGL. To be noted: for inhibition at 1 µM: 1 μM inhibitor, mouse brain membrane fraction or cell lysates, read-out: MAGL % inh. 1 μM (mouse). It is filed as biochemical. The procedure, abridged:
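Mouse brain membrane fraction or cell lysate proteomes (50 μL, 1.0 mg/mL total protein) were preincubated with inhibitors at varying concentrations for 30 min at 37° C. FP-Rh (1.0 μL, 50 μM in DMSO) was then added for a further 30 min at 37° C. Samples were quenched with 4× SDS loading buffer and resolved by SDS-PAGE. MAGL activity was quantified from fluorescent gel band intensity using ImageJ 1.49 k.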

The target in assay [4] is T4, ABHD6 (Mus musculus, UniProt Q8R2Y0).
T4 construct: Proteomes (mouse brain membrane fraction or cell lysates); from tissue; host or cells: mouse brain membrane fraction or cell lysates
T4 sequence (Q8R2Y0 1-336): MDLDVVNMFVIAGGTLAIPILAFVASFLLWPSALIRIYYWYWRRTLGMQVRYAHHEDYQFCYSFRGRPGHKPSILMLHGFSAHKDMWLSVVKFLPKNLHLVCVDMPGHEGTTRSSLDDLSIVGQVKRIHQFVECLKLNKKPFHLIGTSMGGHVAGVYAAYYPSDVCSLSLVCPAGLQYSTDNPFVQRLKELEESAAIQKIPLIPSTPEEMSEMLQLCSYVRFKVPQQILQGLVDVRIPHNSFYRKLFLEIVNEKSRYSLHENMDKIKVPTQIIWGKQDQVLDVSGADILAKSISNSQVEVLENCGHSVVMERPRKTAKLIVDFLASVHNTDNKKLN
The assay is described as follows: In vitro competitive activity-based protein profiling (mouse), ABHD6. The format is biochemical. As to conditions: 1 μM inhibitor, mouse brain membrane fraction or cell lysates; read-out: ABHD6 % inh. 1 μM (mouse). An outline of the steps:
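Mouse brain membrane proteome or cell lysate (1.0 mg/mL protein) preincubated 30 min at 37 °C with inhibitor, then labelled 30 min at 37 °C with FP-rhodamine probe. Remaining MAGL and ABHD6 activity quantified by in-gel fluorescence band intensity after SDS-PAGE; values are % inhibition at 1 μM.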

In assay [5] the target is T3, MAGL. The assay is described as follows: Mouse brain proteomes from inhibitor treated mice, MAGL inhibition. It is filed as in vivo. To be noted: 5 mg/kg oral gavage, C57Bl/6J mouse brain, 4 h following administration; read-out: MAGL % inh. 5 mg/kg (mouse). As to the method: Preparation of Mouse Brain Proteomes from Inhibitor Treated Mice.
Inhibitors were administered to wild-type C57Bl/6J by oral gavage in a vehicle of polyethylene glycol. Each animal was sacrificed 4 h following administration and brain proteomes were prepared and analyzed according to previously established methods (See Niphakis, M. J., et al. (2011) ACS Chem. Neurosci. and Long, J. Z., et al. Nat. Chem. Biol. 5:37-44).

As a reminder, the IC50 is the point on the concentration scale where inhibition reaches its midpoint.

On to `O=C(O)CN1CCC2(CC1)CN(c1cc(C(F)(F)F)ccc1CN1CCN(C(=O)OC(C(F)(F)F)C(F)(F)F)CC1)C2` [Example 17, 2-(2-(2-((4-(((1,1,1,3,3,3-Hexafluoropropan-2-yl)oxy)carbonyl)piperazin-1-yl)methyl)-5-(trifluoromethyl)phenyl)-2,7-diazaspiro[3.5]nonan-7-yl)acetic Acid], for which the inhibition at 1 µM is no less than 75% at MAGL [1], no less than 75% on MAGL [3] and 0 to 25% on ABHD6 [4]. In addition, the figures for the IC50 at MAGL [1] and on ABHD6 [2] were no more than 0.1 µM and 1 to 10 µM, respectively. In addition, the inhibition at 5 mg/kg at MAGL [5] fell in the range of 0 to 25%.

For the molecule `O=C(OC(C(F)(F)F)C(F)(F)F)N1CCN(Cc2ccc(Cl)cc2C2(C(=O)O)CCCC2)CC1` [Example 26, 1-(5-Chloro-2-((4-(((1,1,1,3,3,3-hexafluoropropan-2-yl)oxy)carbonyl)piperazin-1-yl)methyl)phenyl)cyclopentane-1-carboxylic Acid], the inhibition at 1 µM is no less than 75% on MAGL [1], no less than 75% at MAGL [3] and 0 to 25% at ABHD6 [4]. The 50% inhibitory concentration (IC50) is no more than 0.1 µM at MAGL [1] and 1 to 10 µM on ABHD6 [2]. Further, at MAGL [5], the inhibition at 5 mg/kg is no less than 75%.

Regarding `O=C(O)Cn1ccc(-c2cc(Cl)ccc2CN2CCN(C(=O)OC(C(F)(F)F)C(F)(F)F)CC2)n1` [Example 12, 2-(3-(5-Chloro-2-((4-(((1,1,1,3,3,3-hexafluoropropan-2-yl)oxy)carbonyl)piperazin-1-yl)methyl)phenyl)-1H-pyrazol-1-yl)acetic Acid], the figures for the inhibition at 1 µM at MAGL [1], on MAGL [3] and on ABHD6 [4] were no less than 75%, no less than 75% and 0 to 25%, respectively. Moreover, the IC50 on MAGL [1] is no more than 0.1 µM; on ABHD6 [2], 0.1 to 1 µM. On MAGL [5], the inhibition at 5 mg/kg lay within 0 to 25%.

As for `CC1(C(=O)O)CCCN(c2cc(C(F)(F)F)ccc2CN2CCN(C(=O)OC(C(F)(F)F)C(F)(F)F)CC2)C1` (stereo not shown) [Example 54, 1-(2-((4-(((1,1,1,3,3,3-hexafluoropropan-2-yl)oxy)carbonyl)piperazin-1-yl)methyl)-5-(trifluoromethyl)phenyl)-3-methylpiperidine-3-carboxylic acid], the inhibition at 1 µM at MAGL [1] was no less than 75%; at MAGL [3] it was no less than 75%; at ABHD6 [4], 50 to 75%. The IC50 is no more than 0.1 µM at MAGL [1] and 1 to 10 µM at ABHD6 [2]. Moreover, the inhibition at 5 mg/kg at MAGL [5] is no less than 75%.

As for `O=C(OC(C(F)(F)F)C(F)(F)F)N1CCN(Cc2ccc(C(F)(F)F)cc2C2(C(=O)O)CCOCC2)CC1` [Example 45, 4-(2-((4-(((1,1,1,3,3,3-hexafluoropropan-2-yl)oxy)carbonyl)piperazin-1-yl)methyl)-5-(trifluoromethyl)phenyl)tetrahydro-2H-pyran-4-carboxylic acid], the figures for the inhibition at 1 µM at MAGL [1], on MAGL [3] and at ABHD6 [4] were no less than 75%, no less than 75% and 0 to 25%, respectively. The IC50 on MAGL [1] is no more than 0.1 µM; on ABHD6 [2] it was 1 to 10 µM. At MAGL [5], the inhibition at 5 mg/kg was no less than 75%.

As for `O=C(OC(C(F)(F)F)C(F)(F)F)N1CCN(Cc2ccc(C(F)F)cc2C2(C(=O)O)CCCC2)CC1` [Example 27, 1-(5-(Difluoromethyl)-2-((4-(((1,1,1,3,3,3-hexafluoropropan-2-yl)oxy)carbonyl)piperazin-1-yl)methyl)phenyl)cyclopentane-1-carboxylic Acid], the figures for the inhibition at 1 µM on MAGL [1], at MAGL [3] and on ABHD6 [4] were no less than 75%, no less than 75% and 0 to 25%, respectively. For the same molecule, the IC50 at MAGL [1] was no more than 0.1 µM; on ABHD6 [2], 1 to 10 µM. In addition, the inhibition at 5 mg/kg on MAGL [5] was no less than 75%.

`O=C(O)CN1CCC2(C1)CN(c1cc(C(F)(F)F)ccc1CN1CCN(C(=O)OC(C(F)(F)F)C(F)(F)F)CC1)C2` [Example 23, 2-(2-(2-((4-(((1,1,1,3,3,3-Hexafluoropropan-2-yl)oxy)carbonyl)piperazin-1-yl)methyl)-5-(trifluoromethyl)phenyl)-2,6-diazaspiro[3.4]octan-6-yl)acetic Acid]: the inhibition at 1 µM is no less than 75% at MAGL [1], no less than 75% at MAGL [3] and 0 to 25% at ABHD6 [4]. In addition, the figures for the concentration for half-maximal inhibition (IC50) at MAGL [1] and on ABHD6 [2] were no more than 0.1 µM and 1 to 10 µM, respectively. At MAGL [5], the inhibition at 5 mg/kg was 0 to 25%.

On to `O=C(O)CN1CC2CN(c3cc(C(F)(F)F)ccc3CN3CCN(C(=O)OC(C(F)(F)F)C(F)(F)F)CC3)CC2C1` (stereo not shown) [Example 15, 2-(5-(2-((4-(((1,1,1,3,3,3-Hexafluoropropan-2-yl)oxy)carbonyl)piperazin-1-yl)methyl)-5-(trifluoromethyl)phenyl)hexahydropyrrolo[3,4-c]pyrrol-2(1H)-yl)acetic Acid], for which the values for the inhibition at 1 µM at MAGL [1], on MAGL [3] and on ABHD6 [4] were no less than 75%, no less than 75% and 0 to 25%, respectively. Moreover, the values for the IC50 at MAGL [1] and on ABHD6 [2] were no more than 0.1 µM and 1 to 10 µM, respectively. Moreover, the inhibition at 5 mg/kg on MAGL [5] was in the range of 0 to 25%.

As for `O=C(O)CC1CCN(c2cc(C(F)(F)F)ccc2CN2CCN(C(=O)OC(C(F)(F)F)C(F)(F)F)CC2)CC1` [Example 43, 2-(1-(2-((4-(((1,1,1,3,3,3-hexafluoropropan-2-yl)oxy)carbonyl)piperazin-1-yl)methyl)-5-(trifluoromethyl)phenyl)piperidin-4-yl)acetic acid], the inhibition at 1 µM on MAGL [1], on MAGL [3] and at ABHD6 [4] was no less than 75% each time. The concentration for half-maximal inhibition (IC50) is no more than 0.1 µM on MAGL [1] and 1 to 10 µM on ABHD6 [2]. Also, the inhibition at 5 mg/kg at MAGL [5] was no less than 75%.

As for `O=C(OC(C(F)(F)F)C(F)(F)F)N1CCN(Cc2ccc(F)cc2C2(C(=O)O)CCCC2)CC1` [Example 40, 1-(5-fluoro-2-((4-(((1,1,1,3,3,3-hexafluoropropan-2-yl)oxy)carbonyl)piperazin-1-yl)methyl)phenyl)cyclopentane-1-carboxylic acid], the values for the inhibition at 1 µM on MAGL [1], at MAGL [3] and on ABHD6 [4] were no less than 75%, no less than 75% and 0 to 25%, respectively. The IC50 on MAGL [1] was no more than 0.1 µM; at ABHD6 [2] it was 1 to 10 µM. Besides, on MAGL [5], the inhibition at 5 mg/kg was no less than 75%.

Consider `O=C(O)Cn1cc(-c2cc(C(F)(F)F)ccc2CN2CCN(C(=O)OC(C(F)(F)F)C(F)(F)F)CC2)cn1` [Example 6, 2-(4-(2-((4-(((1,1,1,3,3,3-Hexafluoropropan-2-yl)oxy)carbonyl)piperazin-1-yl)methyl)-5-(trifluoromethyl)phenyl)-1H-pyrazol-1-yl)acetic Acid], for which the inhibition at 1 µM on MAGL [1], at MAGL [3] and at ABHD6 [4] was no less than 75% each time. Moreover, the results for the half-maximal inhibitory concentration (IC50) on MAGL [1], at ABHD6 [2] and at MAGL [3] (mouse proteome) were no more than 0.1 µM, 1 to 10 µM and no more than 0.1 µM, respectively. Also, at MAGL [5], the inhibition at 5 mg/kg was 0 to 25%.
